Results as given in paper PMC3315157 (Biochemistry, 2012).
Values joined by “and” are separate entries in the source; they are usually repeats but may differ in a detail not shown here. Equal entries are not always repeated. Where two headings read alike, the source gives them in different places.

Columns and labels:
Torpedo nAChR [1] = target: T1, Torpedo nAChR (Tetronarce californica, UniProt P02710+P02712+P02714+P02718); assay: biochemical; type: binding; settings: for reduction of agonist-enhanced [125I]SADU-3-72 photolabeling within αV8-20K: 130 μM bupropion (separate experiment) or TCP
Torpedo nAChR [2] = target: T1, Torpedo nAChR; assay: [125I]-SADU-3-72 competition binding assay
Torpedo nAChR [3] = target: T1, Torpedo nAChR; type: cell-based
[4] = test system: α1β1εδ (adult mouse muscle-type) nAChRs; settings: read-out: IC50, impaired channel opening; binding to the resting nAChR; HEK-293 cells; cited from earlier work
[5] = resting state (+α-BgTx), tetracaine 130 μM, native nAChR-rich membranes, n=1
[6] = desensitized state (Carb), TCP 130 μM, native nAChR-rich membranes, n=1

T1 sequence (P02710 25-461): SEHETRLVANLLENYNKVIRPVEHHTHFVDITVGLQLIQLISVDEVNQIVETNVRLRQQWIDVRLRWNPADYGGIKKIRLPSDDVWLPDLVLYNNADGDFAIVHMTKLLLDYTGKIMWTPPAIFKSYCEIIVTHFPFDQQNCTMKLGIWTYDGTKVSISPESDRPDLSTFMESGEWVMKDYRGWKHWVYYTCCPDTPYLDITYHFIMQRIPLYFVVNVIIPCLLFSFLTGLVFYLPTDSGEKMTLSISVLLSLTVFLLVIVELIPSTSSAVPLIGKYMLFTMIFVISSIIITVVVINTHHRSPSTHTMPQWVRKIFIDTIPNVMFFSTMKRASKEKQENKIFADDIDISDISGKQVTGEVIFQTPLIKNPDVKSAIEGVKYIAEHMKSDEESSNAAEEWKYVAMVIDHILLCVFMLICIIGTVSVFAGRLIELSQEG
T1 sequence (P02712 25-493): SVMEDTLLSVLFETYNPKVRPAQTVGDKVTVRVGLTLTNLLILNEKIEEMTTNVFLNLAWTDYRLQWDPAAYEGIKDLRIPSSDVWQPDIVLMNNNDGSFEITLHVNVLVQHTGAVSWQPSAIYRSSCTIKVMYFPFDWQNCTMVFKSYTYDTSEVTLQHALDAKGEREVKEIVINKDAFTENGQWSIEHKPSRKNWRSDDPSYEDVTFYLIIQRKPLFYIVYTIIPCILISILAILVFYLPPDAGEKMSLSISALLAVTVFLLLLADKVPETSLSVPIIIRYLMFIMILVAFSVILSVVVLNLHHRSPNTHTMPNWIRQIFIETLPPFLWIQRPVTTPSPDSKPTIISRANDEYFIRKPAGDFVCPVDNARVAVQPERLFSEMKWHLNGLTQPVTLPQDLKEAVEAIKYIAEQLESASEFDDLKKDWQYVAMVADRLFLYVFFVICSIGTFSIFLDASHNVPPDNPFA
T1 sequence (P02714 18-506): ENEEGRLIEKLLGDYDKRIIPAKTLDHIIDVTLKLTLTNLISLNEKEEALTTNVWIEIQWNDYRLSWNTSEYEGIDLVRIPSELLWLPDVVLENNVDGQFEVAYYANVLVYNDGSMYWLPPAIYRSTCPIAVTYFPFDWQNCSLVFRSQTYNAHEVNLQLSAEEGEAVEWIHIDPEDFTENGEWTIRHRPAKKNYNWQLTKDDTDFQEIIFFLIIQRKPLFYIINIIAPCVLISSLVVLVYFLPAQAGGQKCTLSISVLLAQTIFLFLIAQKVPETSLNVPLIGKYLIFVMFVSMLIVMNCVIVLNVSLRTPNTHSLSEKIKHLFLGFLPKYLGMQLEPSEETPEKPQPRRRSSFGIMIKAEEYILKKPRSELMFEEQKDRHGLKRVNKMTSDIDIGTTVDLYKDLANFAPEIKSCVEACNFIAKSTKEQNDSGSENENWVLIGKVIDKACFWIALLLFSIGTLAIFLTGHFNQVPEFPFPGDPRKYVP
T1 sequence (P02718 22-522): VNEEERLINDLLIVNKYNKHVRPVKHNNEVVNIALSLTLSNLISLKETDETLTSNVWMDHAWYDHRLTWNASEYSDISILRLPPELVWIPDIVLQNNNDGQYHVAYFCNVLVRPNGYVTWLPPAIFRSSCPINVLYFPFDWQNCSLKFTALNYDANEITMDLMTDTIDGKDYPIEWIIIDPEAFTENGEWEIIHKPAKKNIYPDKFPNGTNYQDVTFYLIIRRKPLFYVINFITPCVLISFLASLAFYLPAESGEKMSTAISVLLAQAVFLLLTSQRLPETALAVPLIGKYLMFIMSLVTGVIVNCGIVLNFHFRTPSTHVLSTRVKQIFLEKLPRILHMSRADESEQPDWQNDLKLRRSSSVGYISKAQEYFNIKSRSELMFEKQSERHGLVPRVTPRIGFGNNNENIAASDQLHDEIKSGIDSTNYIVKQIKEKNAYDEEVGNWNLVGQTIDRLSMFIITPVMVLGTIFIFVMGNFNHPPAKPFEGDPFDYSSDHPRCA

`CCCCNc1ccc(C(=O)OCCN(C)C)cc1` [tetracaine] showed an inhibition at 130 µM (Torpedo nAChR [1]; read-out: inhibition of [125I]SADU-3-72 labeling within αV8-20K fragment) of 49%, an inhibition at 130 µM (Torpedo nAChR [1]; read-out: inhibition of [125I]SADU-3-72 labeling within βV8-22/23K fragment) of 76% and an inhibition at 130 µM (Torpedo nAChR [1]; read-out: inhibition of [125I]SADU-3-72 labeling within γV8-24K fragment) of 79%. The inhibition at 130 µM (Torpedo nAChR [1]; read-out: inhibition of [125I]SADU-3-72 labeling within δV8-14K fragment) was 88%, the “reduction of [125I]SADU-3-72 photolabeling in α-subunit” value (Torpedo nAChR [1]; [5]) was under 5% and the “reduction of [125I]SADU-3-72 photolabeling in β-subunit” value (Torpedo nAChR [1]; [5]) was 55%. For the same molecule, the “reduction of [125I]SADU-3-72 photolabeling in γ-subunit” value (Torpedo nAChR [1]; [5]) was 51%, the “reduction of [125I]SADU-3-72 photolabeling in δ-subunit” value (Torpedo nAChR [1]; [5]) was 73% and the “inhibition of [125I]-SADU-3-72 photoincorporation within subunit fragments containing the M2 segments” value (Torpedo nAChR [1]; resting state, αV8-20, βV8-22, γV8-24 and δV8-14) was 50–90%.

For `c1csc(C2(N3CCCCC3)CCCCC2)c1` [TCP, 1-(1-(2-Thienyl)cyclohexyl) piperidine (tenocyclidine)], the “effect on [125I]SADU-3-72 labeling of δLeu265 (M2-9)” value (Torpedo nAChR [1]; desensitized state (400 μM Carb), 130 μM TCP, preparative photolabeling) was “eliminated”, the “reduction of agonist-enhanced [125I]SADU-3-72 photolabeling within αV8-20K” value (Torpedo nAChR [1]; desensitized state (Carb)) was “not inhibited” and the “effect on [125I]SADU-3-72 β subunit labeling” value (Torpedo nAChR [1]; [6]) was “unchanged”. The “increase of [125I]SADU-3-72 photolabeling in α-subunit” value (Torpedo nAChR [1]; [6]) was ~ 15%, the “effect on [125I]SADU-3-72 labeling in βV8-22/23K, γV8-24K and δV8-14K fragments” value (Torpedo nAChR [1]; desensitized state (Carb), TCP (140 μM in Figure 5 legend)) was “further inhibited labeling” and the inhibition at 130 µM (Torpedo nAChR [1]; read-out: inhibition of [125I]SADU-3-72 photolabeling in γ-subunit) was about 35%. For the same molecule, the inhibition at 130 µM (Torpedo nAChR [1]; read-out: inhibition of [125I]SADU-3-72 photolabeling in δ-subunit) was about 35%.

`CC(NC(C)(C)C)C(=O)c1ccc(N=[N+]=[N-])c(I)c1` (racemic) [SADU-3-72, (±)-2-(N-tert-butylamino)-3′-[^125I]-iodo-4′-azidopropiophenone] showed an IC50 (Torpedo nAChR [2]; read-out: IC50, inhibition of [125I]SADU-3-72 binding, affinity-purified, lipid-reconstituted nAChR, absence of Carb (resting state)) of 2300 ± 700 nM.

With `CC(=O)OCC[N+](C)(C)C` [ACh, Acetylcholine] the “Hill coefficient nH, ACh dose-response curve” value (Torpedo nAChR [3]; n=1) was 1.5.

In the case of `CC(NC(C)(C)C)C(=O)c1cccc(Cl)c1` (racemic) [bupropion, (±)-2-(tert-butylamino)-1-(3-chlorophenyl) propan-1-one], the IC50 (Torpedo nAChR [3]) is reported as 340 nM and 300 nM, the “Hill coefficient nH of inhibition of ACh-induced currents” value (Torpedo nAChR [3]; co-applied with 50 μM ACh, n=7 oocytes) is reported as 0.98 ± 0.14 and the IC50 (Torpedo nAChR [2]; IC50, inhibition of [125I]SADU-3-72 binding, native nAChR-rich membranes, desensitized state (400 μM Carb)) is reported as 1200 nM and 1000 nM. For the same molecule, the “fold higher affinity in the desensitized than in the resting state” value (Torpedo nAChR [2]; from inhibition of [125I]SADU-3-72 binding / photoincorporation) was “three-fold”, the IC50 (Torpedo nAChR [1]; IC50, inhibition of δ subunit [125I]SADU-3-72 photolabeling, presence of Carb (desensitized state)) was 2100 nM and 2000 nM and the “reduction of agonist-enhanced [125I]SADU-3-72 photolabeling within αV8-20K” value (Torpedo nAChR [1]; desensitized state (Carb)) was 70%. For the same molecule, the IC50 [4] was 400 nM.
